One molecule from US20030054990A1, “Methods of using neural thread proteins to treat tumors and other conditions requiring the removal or destruction of cells” (Nymox Pharmaceutical Corporation, priority 2001, published 2003) can be followed below.

SMILES strings stand for the structures. Where “and” joins values, the source holds several entries; their conditions need not be identical. Equal entries are not always repeated.

Common to all, as to type: cell-based
One data set relates to glioma cells. The data set is described as follows: MTT assay, cytotoxicity in glioma cells. The conditions noted are these: Tamoxifen 100 μM, AD7C-NTP 100-1000 ng/ml; for ABS 570-650 Sample: single replicate. As for the experimental part: (§1) Cryopreserved glioma and neuroblastoma cells were acquired from the American Type Culture Collection (ATCC), Virginia. Cells were thawed and diluted in suspension media and centrifuged at 700 rpm for 7 minutes at 4° C. Cell pellets were then resuspended in CACO-2 media and cultured in standard 75 or 175 cm^2 flasks at 37° C., 5% CO2 until approximately confluent. The cells were then trypsinized and resuspended in CACO-2 media to achieve a final cell density of 1.5×10^5 cells/ml. 50 μl aliquots per sample were then added per well to 96 well plates.
(§2) For Experiment I, 50 μl of either PBS (phosphate buffered solution) (negative control), 100 μM tamoxifen in phosphate buffered saline PBS (positive control), or test article were added to each sample culture.
(§3) For Experiment II, 1 mM tamoxifen in DMSO (dimethylsulfoxide) was diluted to 100 μM concentration in CACO-2 media, and 100 μl per well was added to positive control wells. A vehicle control consisting of 1% DMSO in CACO-2 media was also added to this experiment. Other negative controls consisted of human and bovine serum albumin and other nontoxic polypeptides.
(§4) An MTT assay is a sensitive assay for the measurement of cell proliferation based upon the reduction of the tetrazolium salt 3,[4,5-dimethylthiazol-2-yl]-2,5-diphenyltetrazolium bromide (MTT).
(§5) Following incubations with control or test substances, media was aspirated and 100 μl MTT was added to each well. Plates were then incubated for 3 hours at 37° C., 5% CO2. MTT was then replaced with acidified isopropanol (0.4 N HCI) and the plates were stored overnight at 4° C., covered. Plates were then agitated gently for 1 minute on a rotary shaker and the difference between emission absorbance of 570 nm and background absorbance of 650 nm was measured spectrophotometrically on an automated plate reader.
(§6) Neuroblastoma and glioma cells were incubated for 24 hours following treatment with test materials or control solutions. MTT was added to all cultures at this time. Results are expressed as means absorbance differences and represented as per cent of negative control and are shown in Table 1 (cytotoxicity in glioma cells) and Table 2 (cytotoxicity in neuroblastoma cells).
(§7) Glioma cells and neuroblastma cells were used for this experiment. MTT was added to the plates following a 24 hour incubation with control or test solutions. Other plates were replenished with fresh media, control, or test solution at 24 hours and then read 3 days later. Results are expressed as mean absorbance differences and as per cent of negative control and are shown in Table 3 (glioma cells) and Table 4 (neuroblastoma cells).
(In general: Tetrazolium dyes change colour on reduction, which living cells bring about.)

The nature of data set [1]: MTT assay, cytotoxicity in glioma cells. The conditions noted are these: glioma cells (ATCC), per cent of negative control, Tamoxifen 100 μM, AD7C-NTP 100-1000 ng/ml, read-out: Percent Of Viable Cells. The procedure: as §1, §2, §3, §4, §5, §6, §7
A short description of data set [2]: MTT assay, cytotoxicity in neuroblastoma cells. The conditions noted are these: neuroblastoma cells (ATCC), per cent of negative control, Tamoxifen 100 μM, AD7C-NTP 100-1000 ng/ml, read-out: Percent Of Viable Cells. The procedure:
as §1, §2, §3, §4, §5, §6, §7

Another data set relates to neuroblastoma cells. Kind of data set: MTT assay, cytotoxicity in neuroblastoma cells. The conditions noted are these: Tamoxifen 100 μM, AD7C-NTP 100-1000 ng/ml; for Sample (absorbance difference): single replicate. The procedure: as §1, §2, §3, §4, §5, §6, §7

With `CC/C(=C(\c1ccccc1)c1ccc(OCCN(C)C)cc1)c1ccccc1` [PC (Tamoxifen), tamoxifen], the “ABS 570-650 Mean” value in the data set with glioma cells (24 hrs) and in the data set with glioma cells (4 days) was 0.015 in each case. Further, the “ABS 570-650 Sample” value with glioma cells (24 hrs) is 0.017 and 0.012; in the data set on glioma cells (4 days), 0.018 and 0.012. Further, the viability at 24 h, 100 µM worked out at 28% in data set [1] (24 hrs) and 14% in data set [2] (24 hour incubation). Moreover, the viability at 4 days, 100 µM was found to be 19% in data set [1] (4 days) and 25% in data set [2] (4 day incubation). Moreover, the results for the “Mean (absorbance difference)” value in the data set on neuroblastoma cells (24 hour incubation) and in the data set with neuroblastoma cells (4 day incubation) were 0.010 and 0.019, respectively. The “Sample (absorbance difference)” value in the data set on neuroblastoma cells (24 hour incubation) is 0.010 and 0.009; with neuroblastoma cells (4 day incubation) it was 0.016.
